≈ marks a conversion by molar mass, not a printed value. Numbered stars: 1 amine (or outer) side, 2 acyl side, 3 side chain; on linkers, the order of the positions; unused ones are H or OH. Square brackets hold non-standard residues; d marks the D form. Peptide text beside a SMILES is read from it. ξ: configuration not given here. X1 = N=C1NCC(C(O)C(N[*:1])C(=O)[*:2])N1C1OC(CO)C(O)C(O)C1O; ξEnduracididine(βξ-OH,4'ξ) = N=C1NCC(C(O)C(N)C(=O)O)N1; ξPhe(βξ-Me) = CC(c1ccccc1)C(N)C(=O)O
What was measured:
[1] = Anatomic pathology (heart and kidney histopathology) in mice; format: in vivo, CD-1 mice; conditions: 20 mg/kg intravenously daily for 9 days, microscopic histopathology on day 10
Protocol: 20-day-old CD-1 mice were divided into a vehicle control group (5 mice) and a treatment group (5 mice). Samples of glycopeptide antibiotics were administered at 20 mg/kg intravenously daily for 9 days.
Samples of tissues from necropsied mice were formalin-fixed, paraffin-embedded, sectioned, stained with hematoxylin and eosin, and examined microscopically. Histopathologic findings were recorded. These findings were subjectively graded on a scale corresponding to slight, mild, moderate, marked and severe as compared to untreated controls.

[2] = tested on: Staphylococcus aureus-SMITH (GC 4543); assay: Acute lethal infection in mice (ED50); format: in vivo; conditions: female CD-1 mice, intraperitoneal challenge, intravenous dose 30 min. after infection, 7 day survival ratios
Protocol: The therapeutic effects of glycopeptide antibiotics of Formula I are determined against acute lethal infections with S. aureus (strain Smith), a penicillin resistant strain of S. pneumoniae (strain GC 1894), and a vancomycin resistant strain of E. fecalis (strain GC 6189 and GC 2246). Female mice, CD-1 (Charles River Laboratories), 20 +1-2 gm, are challenged by intraperitoneal injection of sufficient bacteria (suspended in Trypticase Soy Broth or hog gastric mucin) to kill non-treated controls within 24-48 hr. Antibacterial agents, contained in 0.2 mL of saline or 5% dextrose solution, are administered intravenously 30 min. after infection. Five mice are treated at each dose level. The 7 day survival ratios from 3 separate tests are pooled for calculation of median effective dose (ED50).

Enterococcus sp. = assay: In vitro antibacterial evaluation: minimum inhibitory concentration (MIC), broth dilution method; format: cell-based; conditions: for MIC Enterococcus faecium (GC 4557): strain GC 4557; for MIC Enterococcus faecalis (ATCC 29212): strain ATCC 29212; for MIC Enterococcus faecalis (GC 4552): strain GC 4552
Procedure, shortened: (§1)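 NCCLS M7-A2 broth dilution with Mueller-Hinton II, testing 64-0.06 μg/mL antibiotic against 5×10^5 CFU/mL inocula. Test strains include recent methicillin-, penicillin- or vancomycin-resistant clinical isolates. MIC is the lowest concentration preventing growth.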

Escherichia coli = assay: as above; format: cell-based; conditions: for MIC Escherichia coli (GC 4560): strain GC 4560; for MIC Escherichia coli (GC 4559): strain GC 4559
Procedure, shortened: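 Broth dilution per NCCLS M7-A2 in Muller-Hinton II […], inoculum 5×10^5 CFU/mL, antibiotic tested over 64-0.06 μg/mL. MIC is taken as the lowest concentration that inhibits growth. Panel includes recent clinical isolates resistant to methicillin, penicillin and/or vancomycin.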

Streptococcus sp. = assay: as above; format: cell-based
Procedure, shortened: as §1

Staphylococcus sp. = assay: as above; format: cell-based; conditions: for MIC Coagulase Negative Staphylococcus (GC 4537): strain GC 4537; for MIC Coagulase Negative Staphylococcus (GC 4538): strain GC 4538; for MIC Staphylococcus aureus-SMITH (GC 4536): strain SMITH GC 4536
Procedure, shortened: as §1

[3] = Streptococcus pneumoniae (GC 1894), broth dilution, 18 hours at 35° C.
[4] = broth dilution, 18 hours at 35° C.

N=C1NCC(C(O)C2NC(=O)[C@H](C(O)C3CNC(=N)N3)NC(=O)C(Cc3ccc(O)cc3)NC(=O)[C@H](Cc3ccccc3)NC(=O)CNC(=O)[C@H](CO)NC2=O)N1 (stereo in doubt) [Example 280a, Cyclo[glycylphenylalanyltyrosyl-3-(2-iminoimidazolidin-4-yl)seryl-3-(2-iminoimidazolidin-4-yl)serylseryl]]
Anatomical Pathology (Day 10), Heart [1]: 0 | Anatomical Pathology (Day 10), Kidney [1]: ++

CC(c1ccccc1)C1NC(=O)CNC(=O)C(CO)NC(=O)C(C(O)C2CNC(=N)N2C2OC(CO)C(O)C(O)C2O)NC(=O)C(C(O)C2CNC(=N)N2)NC(=O)C(Cc2ccc(O)cc2)NC1=O (stereo not drawn) [Example 55, Cyclo[glycyl-β-methylphenylalanyltyrosyl-3-(2-iminoimidazolidin-4-yl)seryl-3-(3-hexopyranosyl-2-iminoimidazolidin-4-yl)serylseryl]] (cyclo(G[ξPhe(βξ-Me)]Y[ξEnduracididine(βξ-OH,4'ξ)][X1]S); configuration not given here)
median effective dose (ED50), Staphylococcus aureus-SMITH (GC 4543) [2]: >8

CC(c1ccccc1)C1NC(=O)CNC(=O)C(CO)NC(=O)C(C(O)C2CN(Cc3ccccc3)C(=NCc3ccccc3)N2C2OC(CO)C(O)C(O)C2O)NC(=O)C(C(O)C2CN(Cc3ccccc3)C(=NCc3ccccc3)N2Cc2ccccc2)NC(=O)C(Cc2ccc(OC3OC(CO)C(OC4OC(CO)C(O)C(O)C4O)C(O)C3O)cc2)NC1=O (stereo not drawn) [Example 62, Cyclo[glycyl-β-methylphenylalanyl-O-(4-O-hexopyranosylhexopyranosyl)tyrosyl-3-[1,3-dibenzyl-2-(benzylimino)imidazolidin-4-yl]seryl-3-[1-benzyl-2-(benzylimino)-3-hexopyranosylimidazolidin-4-yl]serylseryl]]
MIC Enterococcus faecium (GC 4557) (Enterococcus sp.): 64 µg/mL (≈ 36.7 µM) | MIC Escherichia coli (GC 4560) (Escherichia coli): 4 µg/mL (≈ 2.29 µM) | MIC Streptococcus pneumoniae (GC 1894) (Streptococcus sp.; [3]): 64 µg/mL (≈ 36.7 µM) | MIC Streptococcus pneumoniae (GC 1894) (Streptococcus sp.; strain GC 1894): 64 µg/mL (≈ 36.7 µM) | median effective dose (ED50), Staphylococcus aureus-SMITH (GC 4543) [2]: >8

CC(c1ccccc1)C1NC(=O)CNC(=O)C(CO)NC(=O)C(CC2CN(Cc3ccccc3)C(=NCc3ccccc3)N2C2OC(CO)C(O)C(O)C2O)NC(=O)C(CC2CN(Cc3ccccc3)C(=NCc3ccccc3)N2Cc2ccccc2)NC(=O)C(Cc2ccc(OC3OC(CO)C(OC4OC(CO)C(O)C(O)C4O)C(O)C3O)cc2)NC1=O (stereo not drawn) [Example 73, Cyclo[3-[1,3-benzyl-2-(benzylimino)imidazolidin-4-yl]alanyl-3-[1-benzyl-2-(benzylimino)-3-hexopyranosylimidazolidin-4-yl]alanylserylglycyl-β-methylphenylalanyl-O-(4-O-hexopyranosylhexopyranosyl)tyrosyl]]
MIC Escherichia coli (GC 4560) (Escherichia coli): 16 µg/mL (≈ 9.34 µM) | MIC Streptococcus pneumoniae (GC 1894) (Streptococcus sp.; [3]): 64 µg/mL (≈ 37.3 µM) | MIC Streptococcus pneumoniae (GC 1894) (Streptococcus sp.; strain GC 1894): 64 µg/mL (≈ 37.3 µM) | median effective dose (ED50), Staphylococcus aureus-SMITH (GC 4543) [2]: >8

CC(c1ccccc1)C1NC(=O)CNC(=O)C(CO)NC(=O)C(C(O)C2CNC(=NCc3ccccc3)N2C2OC(CO)C(O)C(O)C2O)NC(=O)C(C(O)C2CNC(=N)N2)NC(=O)C(Cc2ccc(OC3OC(CO)C(OC4OC5COC6(OC5C(O)C4O)C4CC5CC(C4)CC6C5)C(O)C3O)cc2)NC1=O (stereo not drawn) [Example 76, Cyclo[glycyl-β-methylphenylalanyl-O-[4-O-[4,6-O-(2-adamantylidene)hexopyranosyl]hexopyranosyl]tyrosyl-3-(2-iminoimidazolidin-4-yl)seryl-3-[2-(benzylimino)-3-hexopyranosylimidazolidin-4-yl]serylseryl]]
MIC Enterococcus faecium (GC 2243) (Enterococcus sp.; strain GC 2243): 2 to 8 µg/mL | MIC Enterococcus faecalis (GC 4553) (Enterococcus sp.; strain GC 4553): 4 to 8 µg/mL | MIC Enterococcus faecium (GC 4557) (Enterococcus sp.): 1 to 2 µg/mL | MIC Enterococcus avium (GC 4558) (Enterococcus sp.; strain GC 4558): 2 to 8 µg/mL | MIC Escherichia coli (GC 4560) (Escherichia coli): 2 to 4 µg/mL | MIC Coagulase Negative Staphylococcus (GC 4547) (Staphylococcus sp.; [4]): 2 to 4 µg/mL | MIC Coagulase Negative Staphylococcus (GC 4548) (Staphylococcus sp.; [4]): 2 to 4 µg/mL | MIC Coagulase Negative Staphylococcus (GC 4549) (Staphylococcus sp.; [4]): 2 to 4 µg/mL | MIC Coagulase Negative Staphylococcus (GC 4551) (Staphylococcus sp.; [4]): 2 to 8 µg/mL | MIC Coagulase Negative Staphylococcus (GC 6257) (Staphylococcus sp.; [4]): 0.5 to 2 µg/mL | MIC Staphylococcus aureus (ATCC 29213) (Staphylococcus sp.; [4]): 2 to 8 µg/mL | MIC Staphylococcus aureus (GC 1131) (Staphylococcus sp.; [4]): 4 to 8 µg/mL | MIC Staphylococcus aureus (GC 3051) (Staphylococcus sp.; [4]): 2 to 8 µg/mL | MIC Staphylococcus aureus (GC 3053) (Staphylococcus sp.; [4]): 2 to 8 µg/mL | MIC Staphylococcus aureus (GC 4541) (Staphylococcus sp.; [4]): 2 to 4 µg/mL | MIC Staphylococcus aureus (GC 4542) (Staphylococcus sp.; [4]): 2 to 8 µg/mL | MIC Staphylococcus aureus (GC 4544) (Staphylococcus sp.; [4]): 4 to 8 µg/mL | MIC Staphylococcus aureus (GC 4545) (Staphylococcus sp.; [4]): 2 to 8 µg/mL | MIC Staphylococcus aureus SMITH (GC 4543) (Staphylococcus sp.; [4]): 1 to 4 µg/mL | MIC Staphylococcus haemolyticus (GC 4546) (Staphylococcus sp.; [4]): 2 to 4 µg/mL | MIC Staphylococcus aureus-SMITH (GC 4543) (Staphylococcus sp.; strain SMITH GC 4543, broth dilution, 18 hours at 35° C.): 1 to 4 µg/mL | Anatomical Pathology (Day 10), Heart [1]: 0 | Anatomical Pathology (Day 10), Kidney [1]: ++

CCCCCC(=O)OCC1OC(OC2C(CO)OC(Oc3ccc(CC4NC(=O)C(C(C)c5ccccc5)NC(=O)CNC(=O)C(CO)NC(=O)C(C(O)C5CNC(=N)N5C5OC(CO)C(O)C(O)C5O)NC(=O)C(C(O)C5CNC(=N)N5)NC4=O)cc3)C(O)C2O)C(O)C(O)C1O (stereo not drawn) [Example 95b, Cyclo[glycyl-β-methylphenylalanyl-O-[4-O-(6-O-hexanoylhexopyranosyl)hexopyranosyl]-tyrosyl-3-[2-iminoimidazolidin-4-yl)seryl-3-(3-hexopyranosyl-2-iminoimidazolidin-4-yl)-serylseryl]]
MIC Enterococcus faecalis (GC 2242) (Enterococcus sp.; Enterococcus faecalis (GC 2242), broth dilution, 18 hours at 35° C.): 8 µg/mL (≈ 5.74 µM) | MIC Enterococcus faecalis (ATCC 29212) (Enterococcus sp.): 4 µg/mL (≈ 2.87 µM) | MIC Enterococcus faecalis (GC 2242) (Enterococcus sp.; strain GC 2242): 8 µg/mL (≈ 5.74 µM) | MIC Enterococcus faecalis (GC 4552) (Enterococcus sp.): 8 µg/mL (≈ 5.74 µM) | MIC Escherichia coli (GC 4559) (Escherichia coli): 64 µg/mL (≈ 45.9 µM) | MIC Escherichia coli (GC 4560) (Escherichia coli): <0.5 µg/mL | MIC Staphylococcus aureus (ATCC 29213) (Staphylococcus sp.; [4]): 1 µg/mL (≈ 0.718 µM) | MIC Staphylococcus aureus (GC 1131) (Staphylococcus sp.; [4]): 1 µg/mL (≈ 0.718 µM) | MIC Staphylococcus aureus (GC 4535) (Staphylococcus sp.; [4]): 2 µg/mL (≈ 1.44 µM) | MIC Staphylococcus aureus SMITH (GC 4536) (Staphylococcus sp.; [4]): 1 µg/mL (≈ 0.718 µM) | MIC Coagulase Negative Staphylococcus (GC 4537) (Staphylococcus sp.): 2 µg/mL (≈ 1.44 µM) | MIC Coagulase Negative Staphylococcus (GC 4538) (Staphylococcus sp.): 1 µg/mL (≈ 0.718 µM) | MIC Coagulase Negative Staphylococcus (GC 4547) (Staphylococcus sp.; strain GC 4547): 1 µg/mL (≈ 0.718 µM) | MIC Staphylococcus aureus-SMITH (GC 4536) (Staphylococcus sp.; [4]): 1 µg/mL (≈ 0.718 µM) | median effective dose (ED50), Staphylococcus aureus-SMITH (GC 4543) [2]: 4 mg/kg

CCCCCCC(=O)OCC1OC(OC2C(CO)OC(Oc3ccc(CC4NC(=O)C(C(C)c5ccccc5)NC(=O)CNC(=O)C(CO)NC(=O)C(C(O)C5CNC(=N)N5C5OC(CO)C(O)C(O)C5O)NC(=O)C(C(O)C5CNC(=N)N5)NC4=O)cc3)C(O)C2O)C(O)C(O)C1O (stereo not drawn) [Example 97b, Cyclo[glycyl-β-methylphenylalanyl-O-[4-O-(6-O-heptanoylhexopyranosyl)hexopyranosyl]-tyrosyl-3-(2-iminoimidazolidin-4-yl)seryl-3-(3-hexopyranosyl-2-iminoimidazolidin-4-yl)-serylseryl]]
MIC Enterococcus faecalis (ATCC 29212) (Enterococcus sp.): 4 µg/mL (≈ 2.84 µM) | MIC Enterococcus faecalis (GC 2242) (Enterococcus sp.; strain GC 2242): 2 µg/mL (≈ 1.42 µM) | MIC Enterococcus faecalis (GC 4552) (Enterococcus sp.): 4 µg/mL (≈ 2.84 µM) | MIC Escherichia coli (GC 4559) (Escherichia coli): 32 µg/mL (≈ 22.7 µM) | MIC Escherichia coli (GC 4560) (Escherichia coli): 1 µg/mL (≈ 0.711 µM) | MIC Staphylococcus aureus (ATCC 29213) (Staphylococcus sp.; [4]): 1 µg/mL (≈ 0.711 µM) | MIC Staphylococcus aureus (GC 1131) (Staphylococcus sp.; [4]): 1 µg/mL (≈ 0.711 µM) | MIC Staphylococcus aureus (GC 4535) (Staphylococcus sp.; [4]): 1 µg/mL (≈ 0.711 µM) | MIC Staphylococcus aureus SMITH (GC 4536) (Staphylococcus sp.; [4]): 0.5 µg/mL (≈ 0.355 µM) | MIC Coagulase Negative Staphylococcus (GC 4537) (Staphylococcus sp.): 1 µg/mL (≈ 0.711 µM) | MIC Coagulase Negative Staphylococcus (GC 4537) (Staphylococcus sp.; [4]): 1 µg/mL (≈ 0.711 µM) | MIC Coagulase Negative Staphylococcus (GC 4538) (Staphylococcus sp.): 1 µg/mL (≈ 0.711 µM) | MIC Coagulase Negative Staphylococcus (GC 4538) (Staphylococcus sp.; [4]): 1 µg/mL (≈ 0.711 µM) | MIC Coagulase Negative Staphylococcus (GC 4547) (Staphylococcus sp.; strain GC 4547): 1 µg/mL (≈ 0.711 µM) | MIC Coagulase Negative Staphylococcus (GC 4547) (Staphylococcus sp.; strain GC 4547, broth dilution, 18 hours at 35° C.): 1 µg/mL (≈ 0.711 µM) | MIC Staphylococcus aureus-SMITH (GC 4536) (Staphylococcus sp.; [4]): 0.5 µg/mL (≈ 0.355 µM) | median effective dose (ED50), Staphylococcus aureus-SMITH (GC 4543) [2]: 8 mg/kg

— patent publication US8247211B2, “Glycopeptide antibiotics” (American Cyanamid Company, priority 2001, dated 2012)
